Source: paper PMC7501296, “Rapid and direct control of target protein levels with VHL-recruiting dTAG molecules” (Nature Communications, 2020)
“And” between values parts separate entries of the source, which are not always exact repeats. Equal entries are not always repeated.

System: EWS502 FKBP12^F36V-EWS/FLI; EWS/FLI^−/− cells
Assay: Quantitative MS proteomics, EWS502 FKBP12F36V-EWS/FLI; EWS/FLI-/- cells
Type: cell-based, Homo sapiens
Conditions: for TMT intensity per TMT channel: biological replicates
Procedure: Cell pellets from PATU-8902 and EWS502 cells were lysed using 8 M urea, 200 mM 4-(2-hydroxyethyl)-1-piperazinepropanesulfonic acid (EPPS) at pH 8.5 with protease inhibitors. Samples were further homogenized and DNA was sheered via sonication using a probe sonicator (20 × 0.5 s pulses; level 3). Total protein was determined using a BCA assay and stored at −80 °C until future use. A total of 100 µg of protein was aliquoted for each condition and TMT channel for further downstream processing. Protein extracts were reduced using 10 mM dithiothreitol (DTT) for 30 min at room temperature. Next, samples were alkylated with 20 mM iodoacetamide for 45 min in the dark at room temperature. To facilitate the removal of incompatible reagents, proteins were precipitated using chloroform methanol. Briefly, to 100 µL of each sample, 400 µL of methanol was added, followed by 100 µL of chloroform with thorough vortexing. Next, 300 µL of HPLC grade water was added and samples were vortexed thoroughly. Each sample was centrifuged at 14,000 × g for 5 min at room temperature. The upper aqueous layer was removed and the protein pellet was washed twice with methanol and centrifuged at 14,000 × g for 5 min at room temperature. Protein pellets were resolubilized in 200 mM EPPS buffer and digested overnight with Lys-C (1:100, enzyme:protein ratio) at room temperature. The next day, trypsin (1:100 ratio) was added and incubated at 37 °C for an additional 6 h in a ThermoMixer set to 1000 RPM.
To each digested sample, 30% anhydrous acetonitrile was added and 100 µg of peptides were labeled using 200 µg of TMT reagent (TMT1-TMT11). Following labeling, a 5% hydroxylamine solution was used to quench excess TMT reagent. To equalize protein loading, a ratio check was performed by pooling 2 µg of each TMT-labeled sample. Samples were pooled and desalted using in-house packed C18 StageTips and analyzed by LC-MS/MS. Normalization factors were calculated from this label check, samples were mixed 1:1 across all TMT channels and desalted using a 100 mg Sep-Pak solid phase extraction cartridge. Eluted pooled peptides were further fractionated with basic-pH reverse-phase (bRP) HPLC using an Agilent 300 extend C18 column and collected into a 96 deep-well plate. Samples were consolidated into 24 fractions, and 12 nonadjacent fraction were desalted using StageTips prior to analyses using LC-MS/MS[35]–[37].
All mass spectrometry data was acquired using an Orbitrap Fusion mass spectrometer in-line with a Proxeon NanoLC-1000 UHPLC system. Peptides were separated using an in-house 100 µm capillary column packed with 40 cm of Accucore 150 resin (2.6 µm, 150 Å) (Thermo Fisher Scientific) using a 180 min LC gradient per fraction. Eluted peptides were acquired using synchronous precursor selection (SPS-MS3) method for TMT quantification. Briefly, MS1 spectra were acquired at 120 K resolving power with a maximum of 50 ms in the Orbitrap. MS2 spectra were acquired by selecting the top ten most abundant features via collisional induced dissociation (CID) in the ion trap using an automatic gain control (AGC) of 15 K, quadrupole isolation width of 0.7 m/z and a maximum ion time of 100 ms. For MS3 acquisition, a synchronous precursor selection of ten fragment ions was acquired with an AGC of 150 K for 150 ms and a normalized collision energy of 55.
All acquired raw data were converted to mzXML using Raw File Reader (v3.0.77). Spectra were processed using Comet (2019.01.5)[39]–[41], search results were filtered using the LDA function MASS Package in R, and data were processed using an in-house informatics pipeline[42]–[44]. Custom code was not developed in this study. Briefly, peptide spectral libraries were first filtered to a peptide false discovery rate (FDR) of less than 1% using linear discriminant analysis employing a target decoy strategy. […]

CC[C@H](C(=O)N1CCCC[C@H]1C(=O)O[C@H](CCc1ccc(OC)c(OC)c1)c1ccccc1OCC(=O)NCCCCCCC(=O)N[C@H](C(=O)N1C[C@H](O)C[C@H]1C(=O)N[C@@H](C)c1ccc(-c2scnc2C)cc1)C(C)(C)C)c1cc(OC)c(OC)c(OC)c1 [dTAG^V-1]
Downstream EWS/FLI targets such as NKX2-2 (1 μM): decrease
FKBP12F36V-EWS/FLI abundance, proteomics (1 μM, 6 h): pronounced loss
TMT intensity per TMT channel (protein ALX1, 2 h): 329.39 and 330.899 and 363.825
TMT intensity per TMT channel (protein ALX1, 6 h): 447.307 and 474.897 and 456.686
TMT intensity per TMT channel (protein ALX1, 24 h): 404.298 and 454.379 and 455.33
TMT intensity per TMT channel (protein ALX4, 2 h): 469.052 and 457.885 and 499.883
TMT intensity per TMT channel (protein ALX4, 6 h): 458.233 and 484.524 and 491.274
TMT intensity per TMT channel (protein ALX4, 24 h): 439.297 and 450.367 and 443.433
Fold change > 2 (protein HMGCR, 1 μM, 6 h): + (Fold change in which '+' refers to fold change > 2.)
log2 (Fold change) compared to DMSO (protein HMGCR, 1 μM, 6 h): 1.415
TMT intensity per TMT channel (protein HOXD13, 2 h): 710.117 and 733.089 and 700.291
TMT intensity per TMT channel (protein HOXD13, 6 h): 834.508 and 881.589 and 912.211
TMT intensity per TMT channel (protein HOXD13, 24 h): 931.777 and 1032.27 and 996.28
log2 (Fold change) compared to DMSO (protein NOB1, 1 μM, 6 h): 0.3965
TMT intensity per TMT channel (protein PHOX2B, 2 h): 138.138 and 127.877 and 140.273
TMT intensity per TMT channel (protein PHOX2B, 6 h): 146.64 and 175.628 and 155.142
TMT intensity per TMT channel (protein PHOX2B, 24 h): 163.818 and 130.026 and 156.319
log2 (Fold change) compared to DMSO (protein PRCP, 1 μM, 6 h): -0.5172
TMT intensity per TMT channel (protein SLC12A2, 2 h): 2102.8 and 2152.89 and 2069.05
TMT intensity per TMT channel (protein SLC12A2, 6 h): 2768.92 and 2608.81 and 2791.59
TMT intensity per TMT channel (protein SLC12A2, 24 h): 2883.76 and 2924.13 and 2976.61
log2 (Fold change) compared to DMSO (protein SQLE, 1 μM, 6 h): 0.8919
log2 (Fold change) compared to DMSO (protein TMEM126A, 1 μM, 6 h): -0.3183
